This is an account of results in US9079866B2, “Flap modulators” (JANSSEN PHARMACEUTICA NV, priority 2013, dated 2015).

Structures can show the parent of a compound that is named as a salt. Where only a bound is given, the exact number is not on record here.

The term Ki denotes a measure of affinity in units of concentration, obtained from inhibition or displacement. Lower therefore signals tighter binding. Broadly, the IC50 is the concentration that inhibits the measured activity by half.

Chain of human FLAP (P20292 whole entry): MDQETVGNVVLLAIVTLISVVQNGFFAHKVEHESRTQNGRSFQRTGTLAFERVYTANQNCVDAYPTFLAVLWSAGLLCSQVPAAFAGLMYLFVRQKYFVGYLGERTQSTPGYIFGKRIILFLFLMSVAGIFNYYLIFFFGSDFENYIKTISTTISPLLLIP

The first test concerns the target human FLAP (Homo sapiens (Human), UniProt P20292). Nature of the test: FLAP binding assay (HTRF format). As to conditions: human FLAP wild type, HTRF format; average of two plates, duplicates. Put shortly: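 Reported data take the mean of two different plates carrying duplicate samples and use the HTRF ratio as the measured signal.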
(TR-FRET usually uses a lanthanide donor and a delayed reading to cut background.)
Compound `Nc1ncc(-c2ccc(-c3ccccc3S(=O)(=O)C3CCS(=O)(=O)CC3)cc2F)cn1` [Example 316, 5-{2′-[(1,1-Dioxidotetrahydro-2H-thiopyran-4-yl)sulfonyl]-3-fluorobiphenyl-4-yl}pyrimidin-2-amine hydrochloride] gave a Ki of 0.746 µM.

The test is the same for the next values; noted with them: wild type FLAP, HTRF format.
With `CC(C)(C)NS(=O)(=O)c1ccccc1-c1ccc(-c2cn3cc(C(F)(F)F)ccc3n2)c(F)c1` [Example 586, N-tert-Butyl-3′-fluoro-4′-[6-(trifluoromethyl)imidazo[1,2-a]pyridin-2-yl]biphenyl-2-sulfonamide], the Ki was > 10 µM.
Still for that read-out and setting: in the case of `Nc1cnc(-c2ccc(-c3ccccc3C(=O)N3CCNCC3)cc2F)cn1` [Example 506, 5-[3-Fluoro-2′-(piperazin-1-ylcarbonyl)biphenyl-4-yl]pyrazin-2-amine] it was > 10 µM; in that of `Nc1ncc(-c2ccc(-c3cccnc3S(=O)(=O)CCN3CCOCC3)cc2F)cn1` [Example 821, 5-(2-Fluoro-4-(2-((2-morpholinoethyl)sulfonyl)pyridine-3-yl)phenyl)pyrimidin-2-amine formic acid salt], > 10 µM; in that of `Nc1ncc(-c2ccccc2-c2cnc(-c3cnc(N)nc3)c(F)c2)cn1` [Example 854, 5-{2-[6-(2-Aminopyrimidin-5-yl)-5-fluoropyridin-3-yl]phenyl}pyrimidin-2-amine], 1.28 µM.
With `Nc1ncc(-c2ccc(-c3ccccc3S(=O)(=O)C3CC3)cn2)cn1` [Example 691, 5-{5-[2-(Cyclopropylsulfonyl)phenyl]pyridin-2-yl}pyrimidin-2-amine trifluoroacetic acid salt], the inhibition constant Ki is > 10 µM.
The same measure, in the same setting: then `CC(C)(CN)S(=O)(=O)c1ccccc1-c1ccc(-c2cnc(N)cn2)c(F)c1` [Example 737, 5-{2′-[(2-Amino-1,1-dimethylethyl)sulfonyl]-3-fluorobiphenyl-4-yl}pyrazin-2-amine], with 0.984 µM.
For the compound `Nc1cnc(-c2ccc(-c3cccnc3OCCO)cc2F)cn1` [Example 650, 2-({3-[4-(5-Aminopyrazin-2-yl)-3-fluorophenyl]pyridin-2-yl}oxy)ethanol], the affinity, expressed as Ki, was 0.832 µM.

Another test has as its system leukotriene pathway in human whole blood (LTB4 levels). Nature of the test: Human whole blood assay (A23187-stimulated LTB4). The test is classed as cell-based. As to conditions: Homo sapiens, human whole blood diluted 1:1, A23187-stimulated; read-out: LTB4 IC50 1:1. As for the experimental part: The ability of the compounds of the present invention to treat a FLAP-mediated disease and/or disorder, or associated symptoms or complications thereof, was determined using the following procedures. Binding assay data represent the average value obtained from two different assay plates, with samples run in duplicate on each plate. Human whole blood assay data represent a single replicate on an assay plate using whole blood from at least one healthy donor.
An in vitro cellular assay was performed using human whole blood collected in heparin-containing tubes, which was used to test the ability of compounds to modulate the leukotriene pathway in human whole blood. The blood was diluted 1:1 in RPMI medium, pre-incubated for 15 min at 37° Celsius with test compounds at various concentrations, and then stimulated with calcium ionophore, A23187 (7 μg/mL), for 30 min at 37° Celsius. The samples were then centrifuged and plasma was removed. The plasma was diluted in assay buffer and LTB4 levels were measured using a commercial kit (Enzo Life Sciences). The concentration of each compound that was required for half-maximal inhibition (modulation) of recombinant enzyme activity (IC50) was calculated by a 4-parameter equation using the program GraphPad Prism (GraphPad software).
On to `Nc1cnc(-c2ccc(-c3cccnc3S(=O)(=O)C3CCNC3)cc2F)cn1` (racemic) [Example 803, racemic 5-(2-Fluoro-4-(2-(pyrrolidin-3-ylsulfonyl)pyridin-3-yl)phenyl)pyrazin-2-amine hydrochloride], for which the IC50 is 0.241 µM.
Consider `CS(=O)(=O)c1cc(F)ccc1-c1ccc(-c2cnc3[nH]ccc3n2)c(F)c1` [Example 489, 2-[3,4′-Difluoro-2′-(methylsulfonyl)biphenyl-4-yl]-5H-pyrrolo[2,3-b]pyrazine], for which the 50% inhibitory concentration (IC50) is 0.307 µM.
The same measure, in the same setting: in the case of `Nc1nc(-c2ccc(-c3ccccc3S(=O)(=O)N3CCCC3)cc2F)cs1` [Example 579, 4-[3-Fluoro-2′-(pyrrolidin-1-ylsulfonyl)biphenyl-4-yl]-1,3-thiazol-2-amine] it was 1.54 µM.
Turning to `CC(C)(C(N)=O)S(=O)(=O)c1ccccc1-c1ccc(-c2cnc(N)cn2)c(F)c1` [Example 736, 2-{[4′-(5-Aminopyrazin-2-yl)-3′-fluorobiphenyl-2-yl]sulfonyl}-2-methylpropanamide], the IC50 came out at 0.414 µM.
Regarding `Nc1cnc(-c2ccc(-c3ccccc3S(N)(=O)=O)c(F)c2F)cn1` [Example 464, 4′-(5-Aminopyrazin-2-yl)-2′,3′-difluorobiphenyl-2-sulfonamide], the concentration for half-maximal inhibition (IC50) is > 10 µM.
Still for that read-out and setting: then `Nc1cnc(-c2ccc(-c3ccccc3Oc3ncccn3)cc2F)cn1` [Example 526, 5-[3-Fluoro-2′-(pyrimidin-2-yloxy)biphenyl-4-yl]pyrazin-2-amine], with 0.019 µM.
The same measure, in the same setting: in the case of `Nc1cnc(-c2ccc(-c3ccc(C(F)(F)F)cc3Oc3ncccn3)cc2F)cn1` [Example 551, 5-[3-Fluoro-2′-(pyrimidin-2-yloxy)-4′-(trifluoromethyl)biphenyl-4-yl]pyrazin-2-amine] it was 0.021 µM.
Still for that read-out and setting: in the case of `N#Cc1nc(N)cnc1-c1ccc(-c2ccccc2Oc2nccc(N)n2)cc1F` [Example 745, 6-Amino-3-{2′-[(4-aminopyrimidin-2-yl)oxy]-3-fluorobiphenyl-4-yl}pyrazine-2-carbonitrile] it was 0.111 µM.
With `C[C@@H]([C@@H](O)c1ccccc1)N(C)S(=O)(=O)c1ccccc1-c1ccc(-c2ccc(N)nc2)c(F)c1` [Example 666, 4′-(6-Aminopyridin-3-yl)-3′-fluoro-N-((1S,2S)-1-hydroxy-1-phenylpropan-2-yl)-N-methyl-[1,1′-biphenyl]-2-sulfonamide], the IC50 stood at 0.0361 µM.

Staying with this test, now noted: Homo sapiens, human whole blood diluted 1:1 in RPMI, A23187-stimulated LTB4; read-out: LTB4 IC50 1:1.
As to `NC1CCN(S(=O)(=O)c2ccccc2-c2ccc(-c3cnc4c(c3)OCCN4)c(F)c2)CC1` [Example 389, 1-{[4′-(3,4-Dihydro-2H-pyrido[3,2-b][1,4]oxazin-7-yl)-3′-fluorobiphenyl-2-yl]sulfonyl}piperidin-4-amine], the IC50 was determined as 0.137 µM.
The same measure, in the same setting: in the case of `C[C@@H]([C@@H](O)c1ccccc1)N(C)S(=O)(=O)c1ccccc1-c1ccc(-c2cnc(N)cn2)c(F)c1` [Example 118, 4′-(5-aminopyrazin-2-yl)-3′-fluoro-N-((1S,2S)-1-hydroxy-1-phenylpropan-2-yl)-N-methyl-[1,1′-biphenyl]-2-sulfonamide] it was 0.006 µM; in that of `Nc1cnc(-c2ccc(-c3ccccc3S(=O)(=O)NCCCO)cc2F)cn1` [Example 80, 4′-(5-Aminopyrazin-2-yl)-3′-fluoro-N-(3-hydroxypropyl)biphenyl-2-sulfonamide], 0.088 µM; in that of `Nc1cnc(-c2ccc(-c3ccccc3S(=O)(=O)N[C@H]3CCCC[C@@H]3CO)cc2F)cn1` (racemic) [Example 121, racemic (trans)-4′-(5-Aminopyrazin-2-yl)-3′-fluoro-N-[2-(hydroxymethyl)cyclohexyl]biphenyl-2-sulfonamide], 0.01 µM.
With `CN[C@@H]1CCN(S(=O)(=O)c2ccccc2-c2ccc(-c3cnc(N)cn3)c(F)c2)C1` [Example 126, (R)-5-(3-Fluoro-2′-{[3-(methylamino)pyrrolidin-1-yl]sulfonyl}biphenyl-4-yl)pyrazin-2-amine], the IC50 was found to be 0.572 µM.
Same read-out and setting: then `C[C@H](NS(=O)(=O)c1ccccc1-c1ccc(-c2cnc(N)cn2)c(F)c1)c1ccccc1` [Example 24, (R)-4′-(5-Aminopyrazin-2-yl)-3′-fluoro-N-[(1R)-1-phenylethyl]biphenyl-2-sulfonamide], with 0.048 µM; and `Nc1cnc(-c2ccc(-c3ccccc3S(=O)(=O)N3C[C@H](O)[C@@H](N4CCOCC4)C3)cc2F)cn1` (racemic) [Example 187, Racemic-1-{[4′-(5-Aminopyrazin-2-yl)-3′-fluorobiphenyl-2-yl]sulfonyl}-4-morpholin-4-ylpyrrolidin-3-ol trifluoroacetic acid salt], with 0.069 µM.
Still for that read-out and setting: then `Nc1cnc(-c2ccc(-c3ccccc3S(=O)(=O)NC3(CO)CCCC3)cc2F)cn1` [Example 179, 4′-(5-Aminopyrazin-2-yl)-3′-fluoro-N-[1-(hydroxymethyl)cyclopentyl]biphenyl-2-sulfonamide], with 0.002 µM; and `Nc1cnc(-c2ccc(-c3ccccc3S(=O)(=O)N[C@H]3CCCCNC3=O)cc2F)cn1` (stereo in doubt) [Example 28, (S)-4′-(5-Aminopyrazin-2-yl)-3′-fluoro-N-[(3S)-2-oxoazepan-3-yl]biphenyl-2-sulfonamide], with 0.325 µM.
The same measure, in the same setting: then `CC(C)(C)OC(=O)N1CC(O)(CNS(=O)(=O)c2ccccc2-c2ccc(-c3ccc(N)nc3)c(F)c2)C1` [Example 357, tert-Butyl 3-((4′-(6-aminopyridin-3-yl)-3′-fluoro-[1,1′-biphenyl]-2-ylsulfonamido)methyl)-3-hydroxyazetidine-1-carboxylate], with 1.13 µM.
For `Nc1cnc(-c2ccc(-c3ccccc3S(=O)(=O)N3c4ccccc4C[C@H]3CO)cc2F)cn1` [Example 135, (S)-(1-{[4′-(5-Aminopyrazin-2-yl)-3′-fluorobiphenyl-2-yl]sulfonyl}-2,3-dihydro-1H-indol-2-yl)-methanol], the half-maximal inhibitory concentration (IC50) is 0.016 µM.
As to `Nc1cnc(-c2ccc(-c3ccccc3S(=O)(=O)N3CCCC(CO)C3)cc2F)cn1` (racemic) [Example 76, racemic (1-{[4′-(5-Aminopyrazin-2-yl)-3′-fluorobiphenyl-2-yl]sulfonyl}piperidin-3-yl)methanol], the IC50 is 0.027 µM.
With `Nc1cnc(-c2ccc(-c3ccccc3S(=O)(=O)NC3Cc4ccccc4C3)cc2F)cn1` [Example 21, 4′-(5-Aminopyrazin-2-yl)-N-(2,3-dihydro-1H-inden-2-yl)-3′-fluorobiphenyl-2-sulfonamide], the IC50 was determined as 0.035 µM.
On the same count and under the same terms, in the case of `Nc1cnc(-c2ccc(-c3ccccc3S(=O)(=O)N3CC[C@@H](N)C3)cc2F)cn1` [Example 92, (R)-5-(2′-((3-Aminopyrrolidin-1-yl)sulfonyl)-3-fluoro-[1,1′-biphenyl]-4-yl)pyrazin-2-amine] it was 0.222 µM; in that of `C[C@H](CO)NS(=O)(=O)c1ccccc1-c1ccc(-c2cnc3c(c2)OCCN3)c(F)c1` [Example 390, 4′-(3,4-Dihydro-2H-pyrido[3,2-b][1,4]oxazin-7-yl)-3′-fluoro-N-[(1R)-2-hydroxy-1-methylethyl]biphenyl-2-sulfonamide], 0.01 µM.
